Data reported in BigSolDB 2.1.

`NC(N)=C([N+](=O)[O-])[N+](=O)[O-]` showed a solubility (mole fraction) (in 2-butanone, 293.15 K) of 0.00503, a solubility (mole fraction) (in 2-butanone, 298.15 K) of 0.0056 and a solubility (mole fraction) (in 2-butanone, 303.15 K) of 0.00613. For the same molecule, the solubility (mole fraction) (in 2-butanone, 308.15 K) was 0.00659, the solubility (mole fraction) (in 2-butanone, 313.15 K) was 0.00714 and the solubility (mole fraction) (in 2-butanone, 318.15 K) was 0.00782. It also gave a solubility (mole fraction) (in 2-butanone, 323.15 K) of 0.00837, a solubility (mole fraction) (in 2-butanone, 328.15 K) of 0.00899 and a solubility (mole fraction) (in 2-butanone, 333.15 K) of 0.00957. It also gave a solubility (mole fraction) (in DMSO, 293.15 K) of 0.172, a solubility (mole fraction) (in DMSO, 298.15 K) of 0.177 and a solubility (mole fraction) (in DMSO, 303.15 K) of 0.181. For the same molecule, the solubility (mole fraction) (in DMSO, 308.15 K) was 0.184, the solubility (mole fraction) (in DMSO, 313.15 K) was 0.189 and the solubility (mole fraction) (in DMSO, 318.15 K) was 0.193. It also gave a solubility (mole fraction) (in DMSO, 323.15 K) of 0.197, a solubility (mole fraction) (in DMSO, 328.15 K) of 0.201 and a solubility (mole fraction) (in DMSO, 333.15 K) of 0.206. It also gave a solubility (mole fraction) (in MIBK, 293.15 K) of 0.00278, a solubility (mole fraction) (in MIBK, 298.15 K) of 0.00327 and a solubility (mole fraction) (in MIBK, 303.15 K) of 0.00358. For the same molecule, the solubility (mole fraction) (in MIBK, 308.15 K) was 0.00402, the solubility (mole fraction) (in MIBK, 313.15 K) was 0.00428 and the solubility (mole fraction) (in MIBK, 318.15 K) was 0.00467. The solubility (mole fraction) (in MIBK, 323.15 K) was 0.00512, the solubility (mole fraction) (in MIBK, 328.15 K) was 0.00553 and the solubility (mole fraction) (in MIBK, 333.15 K) was 0.006. For the same molecule, the solubility (mole fraction) (in cyclopentanone, 293.15 K) was 0.00715, the solubility (mole fraction) (in cyclopentanone, 298.15 K) was 0.00767 and the solubility (mole fraction) (in cyclopentanone, 303.15 K) was 0.0083. For the same molecule, the solubility (mole fraction) (in cyclopentanone, 308.15 K) was 0.0089, the solubility (mole fraction) (in cyclopentanone, 313.15 K) was 0.00948 and the solubility (mole fraction) (in cyclopentanone, 318.15 K) was 0.0103. It also gave a solubility (mole fraction) (in cyclopentanone, 323.15 K) of 0.011, a solubility (mole fraction) (in cyclopentanone, 328.15 K) of 0.0119 and a solubility (mole fraction) (in cyclopentanone, 333.15 K) of 0.0128.
